According to the supplement of paper PMC4862054:
“And” between values parts separate entries of the source, which are not always exact repeats. Identical values can stand only once.

Legend:
Details in all cases: incubation time: 72 h
[1] = test system: HDQ-P1; experiment: normalised response (% of control), CellTox Green; higher = less cell death (100 = DMSO, 0 = benzethonium chloride kill control)
In short: (§1)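 Compound was dispensed into 384-well plates at 5 concentrations in 10-fold steps spanning a 10,000-fold range specific to that compound. Breast cancer cell lines were added as 20 µl suspension and left for 72 h before CellTox Green fluorescence (485/520 nm) and then CellTiter-Glo luminescence, read after 10 min at room temperature. Each reported value is the normalised signal at one concentration, with 0.1 % DMSO set at 100 and a positive kill control at 0 on each plate.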

[2] = test system: MDA-MB-231; experiment: as above
In short: as §1

[3] = test system: DU-4475; experiment: as above
In short: as §1

[4] = test system: CAL-148; experiment: as above
In short: as §1

[5] = test system: MDA-MB-453; experiment: as above
In short: as §1

[6] = test system: Hs578T; experiment: as above
In short: as §1

[7] = test system: BT-474; experiment: as above
In short: as §1

[8] = test system: CAL-120; experiment: as above
In short: as §1

[9] = test system: MDA-MB-468; experiment: as above
In short: as §1

[10] = test system: BT-549; experiment: as above
In short: as §1

[11] = test system: HCC1143; experiment: as above
In short: as §1

[12] = test system: MFM-223; experiment: as above
In short: as §1

[13] = test system: MCF-10A; experiment: as above
In short: as §1

[14] = test system: CAL-85-1; experiment: as above
In short: as §1

[15] = test system: HCC1599; experiment: as above
In short: as §1

[16] = test system: MDA-MB-436; experiment: as above
In short: as §1

[17] = test system: CAL-51; experiment: as above
In short: as §1

[18] = test system: HCC1937; experiment: as above
In short: as §1

[19] = test system: HDQ-P1; experiment: normalised response (% of control), CellTiter-Glo; higher = more viable cells (100 = DMSO, 0 = benzethonium chloride kill control)
Method: (§2)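 DSRT, 72 h incubation, CellTox Green / CellTiter-Glo readout. Signal is normalised to DMSO and benzethonium chloride controls. Value is the normalised response at the highest dose.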

[20] = test system: MDA-MB-231; experiment: as above
Method: as §2

[21] = test system: DU-4475; experiment: as above
Method: as §2

[22] = test system: CAL-148; experiment: as above
Method: as §2

[23] = test system: SK-BR-3; experiment: as above
Method: as §2

[24] = test system: MDA-MB-453; experiment: as above
Method: as §2

[25] = test system: Hs578T; experiment: as above
Method: as §2

[26] = test system: BT-474; experiment: as above
Method: as §2

[27] = test system: CAL-120; experiment: as above
Method: as §2

[28] = test system: MDA-MB-468; experiment: as above
Method: as §2

[29] = test system: BT-549; experiment: as above
Method: as §2

[30] = test system: HCC1143; experiment: as above
Method: as §2

[31] = test system: MFM-223; experiment: as above
Method: as §2

[32] = test system: MCF-10A; experiment: as above
Method: as §2

[33] = test system: CAL-85-1; experiment: as above
Method: as §2

[34] = test system: HCC1599; experiment: as above
Method: as §2

[35] = test system: MDA-MB-436; experiment: as above
Method: as §2

[36] = test system: CAL-51; experiment: as above
Method: as §2

[37] = test system: HCC1937; experiment: as above
Method: as §2

[38] = test system: DU-4475; experiment: normalised viability (% of control), CellTiter-Blue; higher = more viable cells (about 100 = DMSO control)
Method: (§3)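 DSRT, CellTiter-Blue viability, 72 h incubation. Signal is normalised to DMSO and benzethonium chloride controls. Value is the normalised response at dose 6.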

[39] = test system: CAL-148; experiment: as above
Method: as §3

[40] = test system: MDA-MB-453; experiment: as above
Method: as §3

[41] = test system: CAL-85-1; experiment: as above
Method: as §3

[42] = test system: CAL-51; experiment: as above
Method: as §3

Structure (SMILES) | normalised response [1] | normalised response [2] | normalised response [3] | normalised response [4] | normalised response [5] | normalised response [6] | normalised response [7] | normalised response [8] | normalised response [9] | normalised response [10] | normalised response [11] | normalised response [12] | normalised response [13] | normalised response [14] | normalised response [15] | normalised response [16] | normalised response [17] | normalised response [18] | normalised response [19] | normalised response [20] | also measured
COC(=O)C[C@](O)(CCCC(C)(C)O)C(=O)O[C@@H]1C(OC)=C[C@]23CCCN2CCc2cc4c(cc2[C@H]13)OCO4 [Omacetaxine] (10000 nM) | 64.9% | 48.4% | 98.5% | 1.18% | 98.8% | 33.9% | 75.2% | 80.1% | 84.9% | 77% | 74.8% | 30.1% | -13.6% | -46.3% | 88.5% | 32.1% | 94.3% | 107% | 21.1% | 2.58% | normalised response [21]: 10.2%; normalised response [22]: 26.6%; normalised response [23]: 1.19%; normalised response [24]: 24.6%; normalised response [25]: 1.02%; normalised response [26]: 5.49%; normalised response [27]: 21.7%; normalised response [28]: 4.57%; normalised response [29]: 2.75%; normalised response [30]: 10.8%; normalised response [31]: 3.94%; normalised response [32]: 1.54%; normalised response [33]: 1.11%; normalised response [34]: 6.51%; normalised response [35]: 17.4%; normalised response [36]: 6.4%; normalised response [37]: 17.7%
CCCC(CCC)C(=O)O [Valproic acid] (1000000 nM) | 107% | 98.7% | 97% | 95.9% | 102% | 129% | 105% | 111% | 126% | 111% | 111% | 99.5% | 119% | 97.4% | 93.9% | 106% | 98.4% | 88.4% | 103% | 98.6% | normalised response [21]: 89.9%; normalised response [22]: 88.4%; normalised response [23]: 99.1%; normalised response [24]: 81.2%; normalised response [25]: 99%; normalised response [26]: 100%; normalised response [27]: 103%; normalised response [28]: 97.8%; normalised response [29]: 106%; normalised response [30]: 106%; normalised response [31]: 96.3%; normalised response [32]: 94.6%; normalised response [33]: 96.7%; normalised response [34]: 98.2%; normalised response [35]: 100%; normalised response [36]: 87.6%; normalised response [37]: 100%
CS(=O)(=O)CCNCc1ccc(-c2ccc3ncnc(Nc4ccc(OCc5cccc(F)c5)c(Cl)c4)c3c2)o1 [Lapatinib] (300 nM) |  |  |  |  |  |  |  |  |  |  |  |  |  |  |  |  |  |  |  |  | normalised viability [38]: 87.4% and 108%; normalised viability [39]: 87.1% and 91.6%; normalised viability [40]: 42.9% and 43.1%; normalised viability [41]: 89.5% and 86.2%; normalised viability [42]: 112% and 98.5%
C[C@@H]1CCN(C(=O)CC#N)C[C@@H]1N(C)c1ncnc2[nH]ccc12 [Tofacitinib] (5000 nM) | 113% | 124% | 108% | 101% | 110% | 126% | 102% | 103% | 142% | 120% | 117% | 103% | 105% | 63.8% | 114% | 113% | 89.2% | 111% | 102% | 114% | normalised response [21]: 99.4%; normalised response [22]: 109%; normalised response [23]: 106%; normalised response [24]: 105%; normalised response [25]: 101%; normalised response [26]: 98.2%; normalised response [27]: 99.8%; normalised response [28]: 105%; normalised response [29]: 105%; normalised response [30]: 102%; normalised response [31]: 104%; normalised response [32]: 97.2%; normalised response [33]: 109%; normalised response [34]: 106%; normalised response [35]: 110%; normalised response [36]: 76.6%; normalised response [37]: 100%
Nc1nccc(-c2c(-c3ccc(F)cc3)ncn2C2CCCCC2)n1 (10000 nM) | 95.7% | 109% | 98.6% | 99.9% | 104% | 135% | 103% | 105% | 114% | 100% | 110% | 96% | 11.8% | 71.6% | 98.1% | 92.7% | 105% | 69.8% | 70.5% | 84.4% | normalised response [21]: 91.7%; normalised response [22]: 110%; normalised response [23]: 71.8%; normalised response [24]: 84.9%; normalised response [25]: 99.9%; normalised response [26]: 83.6%; normalised response [27]: 107%; normalised response [28]: 70.2%; normalised response [29]: 92.2%; normalised response [30]: 99.7%; normalised response [31]: 88%; normalised response [32]: 48.5%; normalised response [33]: 75.7%; normalised response [34]: 101%; normalised response [35]: 96%; normalised response [36]: 89.2%; normalised response [37]: 80.2%
COc1cc(Nc2ncc(F)c(Nc3ccc4c(n3)NC(=O)C(C)(C)O4)n2)cc(OC)c1OC [Tamatinib] (10000 nM) | 111% | 108% | 99% | 65.1% | 103% | 104% | 103% | 100% | -90.8% | 95% | 115% | 94.1% | 103% | 64.4% | 106% | 94.9% | 83.7% | 97% | 100% | 103% | normalised response [21]: 107%; normalised response [22]: 109%; normalised response [23]: 109%; normalised response [24]: 112%; normalised response [25]: 102%; normalised response [26]: 95.6%; normalised response [27]: 94.9%; normalised response [28]: 71.2%; normalised response [29]: 67.4%; normalised response [30]: 101%; normalised response [31]: 110%; normalised response [32]: 107%; normalised response [33]: 97.5%; normalised response [34]: 91.6%; normalised response [35]: 95.7%; normalised response [36]: 74.1%; normalised response [37]: 97.5%
FC(F)c1nc2ccccc2n1-c1nc(N2CCOCC2)nc(N2CCOCC2)n1 [ZSTK474] (10000 nM) | 99.7% | 97.6% | 96.3% | 68.1% | 99.1% | 101% | 86.6% | 98.6% | 157% | 73.5% | 90.3% | 84.7% | 106% | 82.4% | 88.4% | 84.2% | 70.5% | 86.7% | 33% | 43.8% | normalised response [21]: 67.5%; normalised response [22]: 38.7%; normalised response [23]: 22.4%; normalised response [24]: 15.9%; normalised response [25]: 25.9%; normalised response [26]: 44.8%; normalised response [27]: 34.6%; normalised response [28]: 36.6%; normalised response [29]: 21.2%; normalised response [30]: 37.9%; normalised response [31]: 29.5%; normalised response [32]: 26.2%; normalised response [33]: 20.2%; normalised response [34]: 71.7%; normalised response [35]: 40.6%; normalised response [36]: 16.4%; normalised response [37]: 39.1%
CN(c1ccccc1CNc1nc(Nc2ccc3c(c2)CC(=O)N3)ncc1C(F)(F)F)S(C)(=O)=O (10000 nM) | 68.7% | -15.1% | 64.2% | 58.1% | 105% | -25.4% | 84.8% | 89.1% | 110% | 52.9% | 70.8% | 92.2% | 7.39% | 11.5% | 60.9% | 92.8% | 16.1% | 51.5% | 16.5% | 4.8% | normalised response [21]: 2.4%; normalised response [22]: 73%; normalised response [23]: 21.6%; normalised response [24]: 56.4%; normalised response [25]: 23.9%; normalised response [26]: 18.1%; normalised response [27]: 45.7%; normalised response [28]: 7.14%; normalised response [29]: 6.21%; normalised response [30]: 17.8%; normalised response [31]: 48.2%; normalised response [32]: 9.01%; normalised response [33]: 4.6%; normalised response [34]: 8.88%; normalised response [35]: 18.9%; normalised response [36]: 5.46%; normalised response [37]: 34.6%
